The source of these data is patent US20210355121A1, “FUSED TRICYCLIC KRAS INHIBITORS” (Incyte Corporation, priority 2020, published 2021).

Where two headings read alike, the source gives them in different places.

For one assay, the target named is KRAS G12C (Homo sapiens, UniProt P01116, G12C). Put plainly: KRAS G12C GDP-GTP exchange assay (bodipy-GDP for GppNHp, with SOS1). The following applies: 2.5 nM bodipy-loaded KRAS G12C, 2 hours pre-incubation with inhibitor, 2 hours after GppNHp-SOS1; read-out: G12C_exchange (KRAS_G12C exchange assay IC50). It counts as biochemical. The procedure:
The inhibitor potency of the exemplified compounds was determined in a fluorescence based guanine nucleotide exchange assay, which measures the exchange of bodipy-GDP (fluorescently labeled GDP) for GppNHp (Non-hydrolyzable GTP analog) to generate the active state of KRAS in the presence of SOS1 (guanine nucleotide exchange factor). Inhibitors were serially diluted in DMSO and a volume of 0.1 μL was transferred to the wells of a black low volume 384-well plate. 5 μL/well volume of bodipy-loaded KRAS G12C diluted to 5 nM in assay buffer (25 mM Hepes pH 7.5, 50 mM NaCl, 10 mM MgCl2 and 0.01% Brij-35) was added to the plate and pre-incubated with inhibitor for 2 hours at ambient temperature. Appropriate controls (enzyme with no inhibitor or with a G12C inhibitor (AMG-510)) were included on the plate. The exchange was initiated by the addition of a 5 μL/well volume containing 1 mM GppNHp and 300 nM SOS1 in assay buffer. The 10 μL/well reaction concentration of the bodipy-loaded KRAS G12C, GppNHp, and SOS1 were 2.5 nM, 500 uM, and 150 nM, respectively. The reaction plates were incubated at ambient temperature for 2 hours, a time estimated for complete GDP-GTP exchange in the absence of inhibitor. For the KRAS G12D and G12V mutants, similar guanine nucleotide exchange assays were used with 2.5 nM as final concentration for the bodipy loaded KRAS proteins and with 4 hours and 3 hours incubation after adding GppNHp-SOS1 mixture for G12D and G12V respectively. A cyclic peptide described to selectively bind G12D mutant (Sakamoto et al., BBRC 484.3 (2017), 605-611) or internal compounds with confirmed binding were used as positive controls in the assay plates. Fluorescence intensities were measured on a PheraStar plate reader instrument (BMG Labtech) with excitation at 485 nm and emission at 520 nm.
Either GraphPad prism or XLfit was used to analyze the data. The IC50 values were derived by fitting the data to a four parameter logistic equation producing a sigmoidal dose-response curve with a variable Hill coefficient. Prism equation: Y=Bottom+(Top−Bottom)/(1+10^((Log IC50−X)*Hill slope)); XLfit equation: Y=(A+((B−A)/(1+((X/C)^D)))) where X is the logarithm of inhibitor concentration and Y is the response.

The subject of assay [1] is MIA PaCa-2 (KRAS G12C) cells. Description: KRAS_G12C cellular pERK HTRF assay. It counts as cell-based, human. The following applies: phospho-ERK1/2 HTRF, 4 hours incubation, read-out: G12C_pERK (KRAS_G12C pERK assay IC50). The procedure:
MIA PaCa-2 (KRAS G12C; ATCC® CRL-1420), A427 (KRAS G12D; ATCC® HTB53), HPAF-II (KRAS G12D; ATCC® CRL-1997) and NCI-H838 (KRAS WT; ATCC® CRL-5844) cells are purchased from ATCC and maintained in RPMI 1640 media supplemented with 10% FBS (Gibco/Life Technologies). The cells are plated at 5000 cells per well (8 uL) into Greiner 384-well low volume, flat-bottom, tissue culture treated white plates and incubated overnight at 37° C., 5% CO2. The next morning, test compound stock solutions are diluted in media at 3× the final concentration, and 4 uL are added to the cells. The plate is mixed by gentle rotation for 30 seconds (250 rpm) at room temperature. The cells are incubated with the KRAS G12C and G12D compounds for 4 hours or 2 hours respectively at 37° C., 5% CO2.
4 uL of 4× lysis buffer with blocking reagent (1:25) (Cisbio) are added to each well and plates are rotated gently (300 rpm) for 30 minutes at room temperature. 4 uL per well of Cisbio anti Phospho-ERK 1/2 d2 is mixed with anti Phospho-ERK 1/2 Cryptate (1:1) are added to each well, mixed by rotation and incubated overnight in the dark at room temperature. Plates are read on the Pherastar plate reader at 665 nm and 620 nm wavelengths. IC50 determination is performed by fitting the curve of inhibitor percent inhibition versus the log of the inhibitor concentration using the GraphPad Prism 7 software.
A general note: Time-resolved FRET reads energy transfer from a long-lived donor to a nearby acceptor.

Sequence of KRAS G12C (P01116 1-188 isoform P01116-2 G12C): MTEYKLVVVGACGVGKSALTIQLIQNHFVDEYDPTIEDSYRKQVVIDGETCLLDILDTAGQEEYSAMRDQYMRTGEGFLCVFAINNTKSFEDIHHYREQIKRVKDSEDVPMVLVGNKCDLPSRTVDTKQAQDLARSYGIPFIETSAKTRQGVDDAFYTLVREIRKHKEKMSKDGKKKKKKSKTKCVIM

As usually defined, the IC50 is the midpoint of a concentration-inhibition curve. On to `COC/C=C/C(=O)N1CC[C@H](n2ncc3c(OC[C@@H]4CCCN4C)nc4c(F)c(-c5c(C)c(C)cc6[nH]ncc56)c(Cl)cc4c32)C[C@H]1CC#N` (single isomer, unassigned) [Example 79a], for which the half-inhibitory concentration (IC50) on KRAS G12C is no more than 100 nM; in assay [1] (Homo sapiens, MIA PaCa-2) it was no more than 100 nM.

Take `COC/C=C/C(=O)N1CC[C@H](n2ncc3c(OC[C@@H]4CCCN4C)nc4c(F)c(-c5c(C)c(Cl)cc6[nH]ncc56)c(Cl)cc4c32)C[C@H]1CC#N` (single isomer, unassigned) [Example 19a]: the IC50 at KRAS G12C was no more than 100 nM; in assay [1] (Homo sapiens, MIA PaCa-2) it was no more than 100 nM.

For `CC#CC(=O)N1CC[C@H](n2ncc3c(N4CC(N(C)C)C4)nc4c(F)c(-c5c(C)c(Cl)cc6[nH]ncc56)c(Cl)cc4c32)C[C@H]1CC#N` (single isomer, unassigned) [Example 9a], the IC50 at KRAS G12C was no more than 100 nM; in assay [1] (Homo sapiens, MIA PaCa-2), no more than 100 nM.

Turning to `COC/C=C/C(=O)N1CC[C@H](n2ncc3c(OC[C@@H]4CCCN4C)nc4c(F)c(-c5cccc6cccc(C#N)c56)c(C)cc4c32)C[C@H]1CC#N` (single isomer, unassigned) [Example 54a], the IC50 on KRAS G12C was no more than 100 nM; in assay [1] (Homo sapiens, MIA PaCa-2) it was no more than 100 nM.

As for `Cc1c(Cl)cc2[nH]ncc2c1-c1c(Cl)cc2c(nc(N3CC(C)(N(C)C)C3)c3cnn([C@H]4CCN(C(=O)/C=C/CN(C)C)[C@H](CC#N)C4)c32)c1F` (single isomer, unassigned) [Example 10a], the half-maximal inhibitory concentration (IC50) on KRAS G12C was no more than 100 nM; in assay [1] (Homo sapiens, MIA PaCa-2), no more than 100 nM.

With `CC#CC(=O)N1CC[C@H](n2ncc3c(N4CC(N(C)C)C4)nc4c(F)c(-c5cccc(Cl)c5Cl)c(Cl)cc4c32)C[C@H]1CC#N` (single isomer, unassigned) [Example 26b], the IC50 (on KRAS G12C; in assay [1]) was no more than 100 nM throughout.

Consider `C=C(F)C(=O)N1CC[C@H](n2ncc3c(OC[C@@H]4CCCN4C)nc4c(F)c(-c5cccc6cccc(C#N)c56)c(C)cc4c32)C[C@H]1CC#N` (single isomer, unassigned) [Example 52a], for which the IC50 at KRAS G12C was no more than 100 nM; in assay [1] (Homo sapiens, MIA PaCa-2), no more than 100 nM.

With `C=CC(=O)N1CCC(n2ncc3c(N4CC(N(C)C)C4)nc4c(F)c(-c5cc(O)cc6ccccc56)c(Cl)cc4c32)CC1` [Example 2, 1-(4-(8-chloro-4-(3-(dimethylamino)azetidin-1-yl)-6-fluoro-7-(3-hydroxynaphthalen-1-yl)-1H-pyrazolo[4,3-c]quinolin-1-yl)piperidin-1-yl)prop-2-en-1-one], the IC50 at KRAS G12C is no more than 100 nM; in assay [1] (Homo sapiens, MIA PaCa-2), no more than 100 nM.

For the molecule `C[C@H](Oc1nc2c(F)c(-c3cccc4cccc(Cl)c34)c(Cl)cc2c2c1cnn2[C@H]1CCN(C(=O)/C=C/CN(C)C)[C@H](CC#N)C1)[C@@H]1CCCN1C` [Example 89, 2-((2S,4S)-4-(8-chloro-7-(8-chloronaphthalen-1-yl)-6-fluoro-4-((S)-1-((S)-1-methylpyrrolidin-2-yl)ethoxy)-1H-pyrazolo[4,3-c]quinolin-1-yl)-1-((E)-4-(dimethylamino)but-2-enoyl)piperidin-2-yl)acetonitrile], the IC50 was no more than 100 nM on KRAS G12C and no more than 100 nM in assay [1] (Homo sapiens, MIA PaCa-2).

`C=C(F)C(=O)N1CC[C@H](n2ncc3c(N4CC(C)(N(C)C)C4)nc4c(F)c(-c5c(C)c(Cl)cc6[nH]ncc56)c(Cl)cc4c32)C[C@H]1CC#N` (single isomer, unassigned) [Example 15a]: the IC50 at KRAS G12C was no more than 100 nM; in assay [1] (Homo sapiens, MIA PaCa-2), no more than 100 nM.

Regarding `COC/C=C/C(=O)N1CC[C@H](n2ncc3c(O[C@@H](C)[C@@H]4CCCN4C)nc4c(F)c(-c5cccc6cccc(C#N)c56)c(C)cc4c32)C[C@H]1CC#N` (single isomer, unassigned) [Example 57b], the concentration for half-maximal inhibition (IC50) on KRAS G12C was no more than 100 nM; in assay [1] (Homo sapiens, MIA PaCa-2) it was no more than 100 nM.

For `CC#CC(=O)N1CC[C@H](n2ncc3c(OC[C@@H]4CCCN4C)nc4c(F)c(-c5c(C)c(C)cc6[nH]ncc56)c(Cl)cc4c32)C[C@H]1CC#N` (single isomer, unassigned) [Example 78a], the half-inhibitory concentration (IC50) on KRAS G12C was no more than 100 nM; in assay [1] (Homo sapiens, MIA PaCa-2), no more than 100 nM.

Consider `COC/C=C/C(=O)N1CC[C@H](n2ncc3c(N4CC(C)(N(C)C)C4)nc4c(F)c(-c5c(C)c(C)cc6[nH]ncc56)c(C)cc4c32)C[C@H]1CC#N` (single isomer, unassigned) [Example 65a], for which the IC50 is no more than 100 nM on KRAS G12C and no more than 100 nM in assay [1] (Homo sapiens, MIA PaCa-2).

In the case of `Cc1c(Cl)cc2[nH]ncc2c1-c1c(Cl)cc2c(nc(N3CC(N(C)C)C3)c3cnn([C@H]4CCN(C(=O)/C=C/C(F)F)[C@H](CC#N)C4)c32)c1F` (single isomer, unassigned) [Example 7a], the 50% inhibitory concentration (IC50) on KRAS G12C is no more than 100 nM; in assay [1] (Homo sapiens, MIA PaCa-2), no more than 100 nM.

As to `CC#CC(=O)N1CC[C@H](n2ncc3c(O[C@@H](C)[C@@H]4CCCN4C)nc4c(F)c(-c5cccc6cccc(Cl)c56)c(Cl)cc4c32)C[C@H]1CC#N` [Example 87, 2-((2S,4S)-1-(but-2-ynoyl)-4-(8-chloro-7-(8-chloronaphthalen-1-yl)-6-fluoro-4-((S)-1-((S)-1-methylpyrrolidin-2-yl)ethoxy)-1H-pyrazolo[4,3-c]quinolin-1-yl)piperidin-2-yl)acetonitrile], the IC50 at KRAS G12C is no more than 100 nM; in assay [1] (Homo sapiens, MIA PaCa-2) it was no more than 100 nM.

For `C=C(F)C(=O)N1CC[C@H](n2ncc3c(O[C@@H](C)[C@@H]4CCCN4C)nc4c(F)c(-c5c(C)c(C)cc6[nH]ncc56)c(C)cc4c32)C[C@H]1CC#N` (single isomer, unassigned) [Example 68b], the IC50 at KRAS G12C is no more than 100 nM; in assay [1] (Homo sapiens, MIA PaCa-2), no more than 100 nM.

Consider `CC#CC(=O)N1CC[C@H](n2ncc3c(OC[C@@H]4CCCN4C)nc4c(F)c(-c5c(C)c(Cl)cc6[nH]ncc56)c(Cl)cc4c32)C[C@H]1CC#N` (single isomer, unassigned) [Example 18a], for which the IC50 is no more than 100 nM at KRAS G12C and no more than 100 nM in assay [1] (Homo sapiens, MIA PaCa-2).

In the case of `Cc1cc2c(nc(O[C@@H](C)[C@@H]3CCCN3C)c3cnn([C@H]4CCN(C(=O)/C=C/CF)[C@H](CC#N)C4)c32)c(F)c1-c1cccc2cccc(C#N)c12` (single isomer, unassigned) [Example 55b], the IC50 at KRAS G12C is no more than 100 nM; in assay [1] (Homo sapiens, MIA PaCa-2) it was no more than 100 nM.

As for `C=CC(=O)N1CC[C@H](n2ncc3c(N4CC(N(C)C)C4)nc4c(F)c(-c5c(C)c(Cl)cc6[nH]ncc56)c(Cl)cc4c32)C[C@H]1CC#N` (single isomer, unassigned) [Example 3a], the 50% inhibitory concentration (IC50) at KRAS G12C was no more than 100 nM; in assay [1] (Homo sapiens, MIA PaCa-2) it was no more than 100 nM.

Consider `Cc1cc2[nH]ncc2c(-c2c(C)cc3c(nc(N4CC(C)(N(C)C)C4)c4cnn([C@H]5CCN(C(=O)/C=C/CF)[C@H](CC#N)C5)c43)c2F)c1C` (single isomer, unassigned) [Example 64a], for which the concentration for half-maximal inhibition (IC50) at KRAS G12C was no more than 100 nM; in assay [1] (Homo sapiens, MIA PaCa-2), no more than 100 nM.

For `COC/C=C/C(=O)N1CC[C@H](n2ncc3c(N4CC(N(C)C)C4)nc4c(F)c(-c5c(C)c(C)cc6[nH]ncc56)c(Cl)cc4c32)C[C@H]1CC#N` (single isomer, unassigned) [Example 75a], the half-inhibitory concentration (IC50) is no more than 100 nM at KRAS G12C and no more than 100 nM in assay [1] (Homo sapiens, MIA PaCa-2).

Consider `CC#CC(=O)N1CC[C@H](n2ccc3c(OC[C@@H]4CCCN4C)nc4c(F)c(-c5c(C)c(C)cc6[nH]ncc56)c(Cl)cc4c32)C[C@H]1CC#N` (single isomer, unassigned) [Example 90a], for which the IC50 at KRAS G12C is no more than 100 nM; in assay [1] (Homo sapiens, MIA PaCa-2), no more than 100 nM.
